{"source": "paper PMC9851200", "about": "“Multiparameter phenotypic screening for endogenous TFEB and TFE3 translocation identifies novel chemical series modulating lysosome function” (Autophagy, 2022)", "origin": "cited, not measured here", "parameters_in_all_cases": "method as in original PKIS2 published data", "key": {"[1]": {"target": "kinases (KINOMEscan panel) (Homo sapiens, UniProt Q8NEV4)", "sequence (Q8NEV4 whole entry)": "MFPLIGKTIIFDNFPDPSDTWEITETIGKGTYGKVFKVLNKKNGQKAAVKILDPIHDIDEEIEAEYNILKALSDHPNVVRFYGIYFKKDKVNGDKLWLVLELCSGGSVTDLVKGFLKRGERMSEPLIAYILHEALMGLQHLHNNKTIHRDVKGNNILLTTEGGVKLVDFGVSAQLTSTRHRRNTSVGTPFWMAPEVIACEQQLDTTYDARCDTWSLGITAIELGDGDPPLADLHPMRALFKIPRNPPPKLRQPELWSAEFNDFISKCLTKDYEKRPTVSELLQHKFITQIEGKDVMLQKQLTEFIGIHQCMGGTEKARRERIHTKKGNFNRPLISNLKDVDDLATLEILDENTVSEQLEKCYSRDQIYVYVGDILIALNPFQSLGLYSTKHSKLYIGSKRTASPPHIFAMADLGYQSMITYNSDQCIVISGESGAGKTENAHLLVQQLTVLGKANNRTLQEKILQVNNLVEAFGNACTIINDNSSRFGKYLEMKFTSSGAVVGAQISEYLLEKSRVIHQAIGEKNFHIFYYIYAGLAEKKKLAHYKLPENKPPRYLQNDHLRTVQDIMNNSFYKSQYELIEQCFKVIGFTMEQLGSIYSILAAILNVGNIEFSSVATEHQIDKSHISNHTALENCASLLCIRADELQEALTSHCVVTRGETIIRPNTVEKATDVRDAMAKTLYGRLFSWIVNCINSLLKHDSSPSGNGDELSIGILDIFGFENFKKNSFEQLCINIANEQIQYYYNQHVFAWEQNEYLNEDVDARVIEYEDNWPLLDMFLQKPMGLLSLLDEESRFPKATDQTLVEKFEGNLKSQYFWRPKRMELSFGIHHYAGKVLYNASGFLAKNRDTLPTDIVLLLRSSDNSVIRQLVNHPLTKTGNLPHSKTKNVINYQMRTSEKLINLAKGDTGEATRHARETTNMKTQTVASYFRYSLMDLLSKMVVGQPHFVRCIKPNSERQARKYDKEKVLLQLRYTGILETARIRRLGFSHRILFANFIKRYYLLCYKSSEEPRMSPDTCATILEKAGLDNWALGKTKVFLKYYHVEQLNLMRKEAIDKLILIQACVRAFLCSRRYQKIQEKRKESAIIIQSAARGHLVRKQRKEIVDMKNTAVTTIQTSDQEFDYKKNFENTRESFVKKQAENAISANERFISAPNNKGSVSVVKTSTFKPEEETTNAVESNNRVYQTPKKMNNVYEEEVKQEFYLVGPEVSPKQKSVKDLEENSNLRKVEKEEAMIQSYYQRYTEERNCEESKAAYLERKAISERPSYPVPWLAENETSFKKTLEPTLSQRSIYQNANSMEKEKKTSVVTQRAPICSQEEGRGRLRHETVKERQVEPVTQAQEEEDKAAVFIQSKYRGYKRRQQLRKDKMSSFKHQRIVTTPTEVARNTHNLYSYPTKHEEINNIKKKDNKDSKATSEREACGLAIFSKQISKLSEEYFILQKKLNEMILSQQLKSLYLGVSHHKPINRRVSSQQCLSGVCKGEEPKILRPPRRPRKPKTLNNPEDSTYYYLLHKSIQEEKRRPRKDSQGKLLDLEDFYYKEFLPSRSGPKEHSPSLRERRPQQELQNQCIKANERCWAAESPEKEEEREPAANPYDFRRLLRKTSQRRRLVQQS", "details": "kinase MYO3A; Published KINOMEscan; ref original PKIS2 published data; cited from earlier work"}, "[2]": {"target": "kinases (KINOMEscan panel) (Homo sapiens, UniProt P51617)", "details": "kinase IRAK1; Published KINOMEscan; ref original PKIS2 published data; cited from earlier work"}, "[3]": {"target": "kinases (KINOMEscan panel) (Homo sapiens, UniProt P11802)", "sequence (P11802 whole entry)": "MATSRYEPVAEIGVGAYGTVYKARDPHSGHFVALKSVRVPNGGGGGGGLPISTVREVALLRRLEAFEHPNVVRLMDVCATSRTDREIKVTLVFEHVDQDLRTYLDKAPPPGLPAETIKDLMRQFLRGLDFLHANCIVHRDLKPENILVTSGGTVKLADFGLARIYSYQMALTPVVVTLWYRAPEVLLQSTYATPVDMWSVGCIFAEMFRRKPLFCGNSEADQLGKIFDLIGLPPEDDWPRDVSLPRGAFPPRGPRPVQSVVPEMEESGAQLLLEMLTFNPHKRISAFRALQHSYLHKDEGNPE", "details": "Published KINOMEscan, ref original PKIS2 published data, cited from earlier work"}, "[4]": {"target": "kinases (KINOMEscan panel) (Homo sapiens, UniProt P14616)", "details": "INSRR; Published KINOMEscan; ref original PKIS2 published data; cited from earlier work"}, "[5]": {"target": "kinases (KINOMEscan panel) (Homo sapiens, UniProt Q9Y3S1)", "sequence (Q9Y3S1 whole entry)": "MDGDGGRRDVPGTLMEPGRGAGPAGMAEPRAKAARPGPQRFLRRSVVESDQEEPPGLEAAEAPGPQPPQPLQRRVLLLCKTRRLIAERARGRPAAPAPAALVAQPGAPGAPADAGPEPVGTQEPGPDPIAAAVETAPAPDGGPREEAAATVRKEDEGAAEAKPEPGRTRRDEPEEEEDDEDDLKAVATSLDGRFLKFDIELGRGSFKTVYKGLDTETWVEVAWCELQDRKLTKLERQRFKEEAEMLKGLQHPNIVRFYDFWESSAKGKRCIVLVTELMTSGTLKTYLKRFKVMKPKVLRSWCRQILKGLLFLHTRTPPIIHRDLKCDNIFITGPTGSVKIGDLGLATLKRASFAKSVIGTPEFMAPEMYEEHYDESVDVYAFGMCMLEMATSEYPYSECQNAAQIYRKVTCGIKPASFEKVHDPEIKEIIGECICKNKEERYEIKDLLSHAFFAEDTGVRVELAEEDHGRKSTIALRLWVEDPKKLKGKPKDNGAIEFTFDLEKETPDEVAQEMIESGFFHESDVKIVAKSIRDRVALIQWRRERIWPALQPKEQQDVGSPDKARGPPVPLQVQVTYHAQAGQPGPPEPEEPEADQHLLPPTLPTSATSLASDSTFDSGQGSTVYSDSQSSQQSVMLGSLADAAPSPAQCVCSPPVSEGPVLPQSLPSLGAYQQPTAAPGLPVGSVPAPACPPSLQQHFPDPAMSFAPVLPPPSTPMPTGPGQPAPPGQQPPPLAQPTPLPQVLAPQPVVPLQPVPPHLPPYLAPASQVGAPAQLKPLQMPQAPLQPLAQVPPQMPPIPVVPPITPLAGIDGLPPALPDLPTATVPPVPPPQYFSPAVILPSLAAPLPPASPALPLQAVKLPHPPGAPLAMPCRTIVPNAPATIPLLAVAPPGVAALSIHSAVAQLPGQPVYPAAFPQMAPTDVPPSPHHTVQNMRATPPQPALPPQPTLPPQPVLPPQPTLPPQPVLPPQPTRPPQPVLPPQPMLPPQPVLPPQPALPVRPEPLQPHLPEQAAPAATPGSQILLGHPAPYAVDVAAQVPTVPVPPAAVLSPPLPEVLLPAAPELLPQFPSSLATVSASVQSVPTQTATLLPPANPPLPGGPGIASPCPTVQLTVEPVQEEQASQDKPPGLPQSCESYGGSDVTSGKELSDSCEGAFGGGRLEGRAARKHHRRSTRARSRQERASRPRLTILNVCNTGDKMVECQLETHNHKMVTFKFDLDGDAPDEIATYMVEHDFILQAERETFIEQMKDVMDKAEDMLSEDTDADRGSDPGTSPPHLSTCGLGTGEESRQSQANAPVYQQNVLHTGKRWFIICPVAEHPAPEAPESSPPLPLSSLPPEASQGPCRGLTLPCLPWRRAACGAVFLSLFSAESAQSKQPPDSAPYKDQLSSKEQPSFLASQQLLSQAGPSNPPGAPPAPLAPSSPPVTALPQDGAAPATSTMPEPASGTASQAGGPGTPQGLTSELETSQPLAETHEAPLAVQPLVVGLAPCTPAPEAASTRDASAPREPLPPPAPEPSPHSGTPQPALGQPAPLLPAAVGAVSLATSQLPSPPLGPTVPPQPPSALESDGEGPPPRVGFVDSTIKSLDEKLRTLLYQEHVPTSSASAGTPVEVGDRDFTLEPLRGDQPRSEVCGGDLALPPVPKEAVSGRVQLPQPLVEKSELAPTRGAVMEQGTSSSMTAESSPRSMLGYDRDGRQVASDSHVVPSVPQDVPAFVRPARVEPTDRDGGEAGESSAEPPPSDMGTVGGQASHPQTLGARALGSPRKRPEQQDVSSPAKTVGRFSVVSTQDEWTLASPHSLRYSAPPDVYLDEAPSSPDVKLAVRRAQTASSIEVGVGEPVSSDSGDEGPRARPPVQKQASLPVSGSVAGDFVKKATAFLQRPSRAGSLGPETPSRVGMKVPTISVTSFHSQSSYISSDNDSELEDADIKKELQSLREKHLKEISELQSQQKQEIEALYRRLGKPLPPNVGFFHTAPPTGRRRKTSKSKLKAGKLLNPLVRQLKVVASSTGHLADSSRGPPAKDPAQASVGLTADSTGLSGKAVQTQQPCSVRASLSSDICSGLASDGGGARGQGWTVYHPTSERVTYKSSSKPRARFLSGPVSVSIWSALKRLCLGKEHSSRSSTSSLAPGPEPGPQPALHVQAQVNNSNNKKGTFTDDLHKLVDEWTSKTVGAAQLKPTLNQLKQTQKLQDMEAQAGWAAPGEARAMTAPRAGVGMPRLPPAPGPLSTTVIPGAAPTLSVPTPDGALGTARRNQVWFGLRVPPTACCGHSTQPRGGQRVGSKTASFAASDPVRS", "details": "WNK2; Published KINOMEscan; ref original PKIS2 published data; cited from earlier work"}, "[6]": {"target": "kinases (KINOMEscan panel) (Homo sapiens, UniProt P49759)", "sequence (P49759 whole entry)": "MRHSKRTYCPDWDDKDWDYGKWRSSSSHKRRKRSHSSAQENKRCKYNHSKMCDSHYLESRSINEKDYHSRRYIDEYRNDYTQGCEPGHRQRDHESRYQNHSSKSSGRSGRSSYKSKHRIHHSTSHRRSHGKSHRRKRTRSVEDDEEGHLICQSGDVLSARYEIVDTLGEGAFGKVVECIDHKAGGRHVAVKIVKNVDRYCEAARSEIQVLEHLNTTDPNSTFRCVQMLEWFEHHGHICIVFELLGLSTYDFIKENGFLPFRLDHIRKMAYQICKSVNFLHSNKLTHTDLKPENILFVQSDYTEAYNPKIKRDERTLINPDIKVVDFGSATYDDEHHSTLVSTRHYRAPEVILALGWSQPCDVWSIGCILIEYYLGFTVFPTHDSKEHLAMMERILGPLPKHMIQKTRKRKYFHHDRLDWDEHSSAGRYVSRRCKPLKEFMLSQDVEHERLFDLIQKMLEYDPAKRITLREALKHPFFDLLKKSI", "details": "kinase CLK1; Published KINOMEscan; ref original PKIS2 published data; cited from earlier work"}, "[7]": {"target": "T1, kinases (KINOMEscan panel) (Homo sapiens, UniProt Q86YV6)", "T1 sequence (Q86YV6 1-388)": "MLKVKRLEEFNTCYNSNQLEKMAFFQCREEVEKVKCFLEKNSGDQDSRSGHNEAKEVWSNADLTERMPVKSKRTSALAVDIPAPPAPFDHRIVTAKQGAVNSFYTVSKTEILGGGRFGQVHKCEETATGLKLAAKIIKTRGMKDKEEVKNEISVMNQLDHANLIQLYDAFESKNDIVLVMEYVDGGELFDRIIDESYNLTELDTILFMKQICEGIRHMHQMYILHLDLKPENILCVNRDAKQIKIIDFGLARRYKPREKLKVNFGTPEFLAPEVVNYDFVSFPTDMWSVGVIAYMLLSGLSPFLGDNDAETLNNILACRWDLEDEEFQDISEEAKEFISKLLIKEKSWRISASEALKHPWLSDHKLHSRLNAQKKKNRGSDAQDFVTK", "details": "kinase MYLK4; Published KINOMEscan; ref original PKIS2 published data; cited from earlier work"}, "[8]": {"target": "T2, kinases (KINOMEscan panel) (Homo sapiens, UniProt O00444)", "T2 sequence (O00444 1-970)": "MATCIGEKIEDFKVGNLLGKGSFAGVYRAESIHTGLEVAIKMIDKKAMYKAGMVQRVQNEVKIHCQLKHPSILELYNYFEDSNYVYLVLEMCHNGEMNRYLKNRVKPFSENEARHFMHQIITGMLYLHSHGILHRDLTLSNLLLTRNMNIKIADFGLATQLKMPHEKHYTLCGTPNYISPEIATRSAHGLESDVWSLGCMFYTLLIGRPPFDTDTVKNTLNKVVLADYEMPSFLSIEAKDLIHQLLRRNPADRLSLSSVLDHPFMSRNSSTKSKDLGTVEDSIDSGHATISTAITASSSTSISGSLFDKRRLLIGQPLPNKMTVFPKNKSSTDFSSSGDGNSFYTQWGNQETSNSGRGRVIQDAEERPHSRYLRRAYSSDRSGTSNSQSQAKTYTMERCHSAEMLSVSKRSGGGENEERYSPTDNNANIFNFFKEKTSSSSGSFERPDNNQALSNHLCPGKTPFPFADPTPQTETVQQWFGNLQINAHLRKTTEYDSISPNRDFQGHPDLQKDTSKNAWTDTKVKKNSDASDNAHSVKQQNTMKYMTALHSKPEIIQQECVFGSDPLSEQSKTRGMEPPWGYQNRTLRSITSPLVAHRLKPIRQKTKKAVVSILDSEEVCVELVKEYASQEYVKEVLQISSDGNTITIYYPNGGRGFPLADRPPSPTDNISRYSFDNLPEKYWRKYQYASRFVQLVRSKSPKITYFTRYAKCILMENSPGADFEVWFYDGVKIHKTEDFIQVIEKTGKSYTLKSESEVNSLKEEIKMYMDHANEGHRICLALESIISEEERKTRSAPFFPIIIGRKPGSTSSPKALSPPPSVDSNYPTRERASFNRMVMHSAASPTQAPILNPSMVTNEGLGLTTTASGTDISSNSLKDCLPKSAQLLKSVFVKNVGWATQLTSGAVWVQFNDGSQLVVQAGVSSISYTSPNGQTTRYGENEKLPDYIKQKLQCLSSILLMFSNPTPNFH", "details": "kinase PLK4; Published KINOMEscan; ref original PKIS2 published data; cited from earlier work"}}}
{"smiles": "Cc1cccc(-c2nc(Nc3ccncc3)c3ccccc3n2)n1", "note": "[NK215]", "values": [{"measurement": "KINOMEscan MYO3A", "setting": "[1]", "value": 0}, {"measurement": "KINOMEscan IRAK1", "setting": "[2]", "value": 0}, {"measurement": "KINOMEscan CDK4-cyclinD1 (???) CCND1", "setting": "[3]; CDK4-cyclinD1 (???) CCND1", "value": 13}, {"measurement": "KINOMEscan CDK4-cyclinD3", "setting": "[3]; kinase CDK4-cyclinD3", "value": 0}, {"measurement": "KINOMEscan CDK4", "setting": "[3]; kinase CDK4", "value": 0}, {"measurement": "KINOMEscan INSRR", "setting": "[4]", "value": 0}, {"measurement": "KINOMEscan WNK2", "setting": "[5]", "value": 0}, {"measurement": "KINOMEscan CLK1", "setting": "[6]", "value": 10}, {"measurement": "KINOMEscan MYLK4", "setting": "[7]", "value": 7}, {"measurement": "KINOMEscan PLK4", "setting": "[8]", "value": 0}]}
